Measurements as given in US12653827B2, “Methods of treating indolent systemic mastocytosis” (Telios Pharma Inc., priority 2024, dated 2026).
Several values for one entry are separate records, joined by “and”; a condition that tells them apart may be missing. Identical values can stand only once.

Test: Clinical study in ISM patients, total symptom score (ISM-TSAF, SISM-TSAF)
Format: in vivo, human
Details: 100 mg or 150 mg BID
Procedure: Efficacy of Compound 128 will be evaluated among adult subjects diagnosed with ISM as defined by WHO diagnostic criteria. The subjects have moderate-to-severe symptoms based on minimum mean total symptom scores (TSS) of ISM-TSAF over the 14-day eligibility screening period for assessment of TSS of ISM-TSAF. Minimum baseline TSS of ISM-TSAF for eligibility is >28. Subjects will receive either 50, 75, 100 or 150 mg BID of Compound 128 plus best supportive care. Subject will be treated for twenty-four weeks and will be evaluated at twelve weeks and twenty-four weeks. Evaluation will be based on the 14-day rolling average TSS of ISM-TSAF or SISM-TSAF. The TSS of ISM-TSAF is based on patient reporting on eleven separate symptoms, measuring the severity of a broad range of mastocytosis-related symptoms over the prior 24 hours, based on a score from zero (no symptoms) to ten (worst possible symptoms experienced) scale for a TSS between 0-110. The eleven symptoms to be scored by the subject are fatigue, abdominal pain, diarrhea, skin spots, itching, flushing, brain fog, headache, dizziness and bone pain. The TSS of SISM-TSAF is based on patient reporting on nine separate symptoms based on a score from zero (no symptoms) to ten (worst possible symptoms experienced). The nine symptoms to be scored by the subject are muscle pain, runny nose, nasal congestion, wheezing, shortness of breath, throat itching, heart palpitations, difficulty concentrating, and diarrhea. The first eight items measure the severity of a broad range of mastocytosis-related symptoms over the prior 24 hours. Each of the first eight symptom is assessed on a 0 (None) to 10 (Worst Imaginable) scale for a TSS between 0-80. The 9th item measures incidence of diarrhea over the prior 24 hours. Endpoints will also be based on mean change in TSS of ISM-TSAF or SISM-TSAF based on 14-day average of patient-reported severity of ISM symptoms; mean change in serum tryptase level, KIT D816V VAF, change in best supportive care medications and change in number of anaphylactic episodes.
Five ISM patients have been treated with Compound 128 at 100 mg or 150 mg BID. At week 12, the TSS of ISM-TSAF is reduced by 28 points compared to the placebo group (FIG. 24), and the TSS of SISM-TSAF is reduced by 22.7 points, compared to the placebo (FIG. 25). In contrast, avapritinib 25 mg QD reduced the TSS of ISM-TSAF by 5.7 points at week 24 (FIG. 23). The average reduction of total symptom score of ISM-TSAF is 55% compared to the baseline while the average reduction of total symptom score of ISM-TSAF is 38% compared to the placebo group (FIG. 28).

C=CC(=O)N1CCC(F)(CNc2ncnc(N)c2-c2ccc(Oc3ccccc3)cc2)CC1 [Compound 128, 1-(4-(((6-amino-5-(4-phenoxyphenyl)pyrimidin-4-yl)amino)methyl)-4-fluoropiperidin-1-yl)prop-2-en-1-one]
average reduction of total symptom score of ISM-TSAF compared to the placebo group: 38% | average reduction of total symptom score of ISM-TSAF compared to the baseline (12-week treatment): 55% | reduction of TSS of ISM-TSAF compared to the placebo group (week 12): 28.0 points and 28 points | reduction of TSS of SISM-TSAF compared to the placebo (week 12): 22.7 points
